The subject of the assay is 485176-168-R4-J1-PDC complex spheroid growth. As to the kind of experiment: Anticancer human tumor 485176-168-R4-J1-PDC patient-derived pancreatic adenocarcinoma cell line growth inhibition [RAS]. The settings on record: for viability, T/C: stronger effect = lower value. From the text:
RAS pathway inhibitors in Combinations in Complex Spheroids
A high-throughput screen of multi-cell type tumor spheroids was designed to identify active combinations of RAS pathway inhibitors and targeted small molecules. Complex spheroids include a stromal component modeled by human endothelial cells (HUVEC) and fibroblasts modeled by human mesenchymal stem cells (MSCs). The concentration ranges selected for each drug and investigational agent were based upon clinically achievable concentrations if the clinical Cmax of the agent was known.
Compounds. The drugs and investigational agents: abemaciclib (NSC768073), cobimetinib (NSC768068), divarasib (GDC6063, NSC841802), docetaxel (NSC628503), GDC-1971 (RLY-1971, NSC841576), gemcitabine (NSC613327), inavolisib (NSC800729), ipatasertib (NSC767898), KB-0742 (NSC834161), MRTX-1133 (NSC836407), osimertinib (NSC779217), RMC-4630 (NSC839698), RMC-6236 (NSC851965), RMC-6291 (NSC852671), Ro-3306 (NSC812927), sapanisertib (NSC764658), SN-38 (NSC673596), staurosporine (NSC755774), SY5609 (NSC837396), and tovorafenib (DAY101, NSC766906), were obtained from the National Cancer Institute (NCI) Developmental Therapeutics Program Chemical Repository. The FDA-approved anticancer drug set is available from the NCI Developmental Therapeutics Program. […] The stock solutions were prepared in dimethyl sulfoxide (DMSO, Sigma-Aldrich, St. Louis, MO, cat. D2650) at 800-fold the tested concentration and stored at -70 degrees C prior to their use. All drugs and investigational agents were tested over a range starting from a high concentration at or near the clinical Cmax and decreasing in half-log increments. If the clinical Cmax for an agent had not been determined, the highest concentration tested was 10 microM.
Cell Culture. All cells were maintained in an incubator at 37 degrees C and 5% CO2 with 95% humidity. The PDC lines were cultured according to standard operating procedures established by the NCI PDMR. All PDCs were thawed and cultured in Matrigel-coated flasks prepared with a working solution of 1X Ham's F-12 nutrient mix, without supplementation (Invitrogen, Waltham, MA, cat. 11765054), 100 U/mL penicillin-streptomycin (Invitrogen, cat. 15140122), and 2.5% Matrigel (Corning Inc., Corning, NY, cat. 354248) for the first three passages. The 362531-283-R-J2-PDC and 782815-120-R-J1-PDC lines were cultured in 6C/Colon 1B media, which includes advanced DMEM/F-12 (Thermo Fisher Scientific, cat. 12634028), 10 mM HEPES (Thermo Fisher Scientific, cat. 15630080), 1X GlutaMAX supplement (Thermo Fisher Scientific, cat. 35050061), 0.1 mg/mL primocin (InvivoGen, San Diego, CA, cat. ant-pm-2), 10% defined fetal bovine serum, heat inactivated (HyClone Laboratories Inc., Logan, UT, cat. SH30070.03HI), 50% L-WRN conditioned media (ATCC, cat. CRL-3276), 1.25 mM N-Acetyl-L-cysteine (Sigma-Aldrich, cat. A9165), 10 mM nicotinamide (Sigma-Aldrich, cat. N0636), 1X B-27 supplement (Thermo Fisher Scientific, cat. 17504044), 1X N-2 supplement (Thermo Fisher Scientific, cat. 17502048), 50 ng/mL human EGF (Thermo Fisher Scientific, cat. PHG0311), and 10 microM Y-27632 dihydrochloride (Tocris Bioscience, cat. 1254). The K12877-001-R-J1-PDC line was cultured in 6I media, which includes all 6C/Colon 1B media plus 10 ng/mL human FGF-10 (PeproTech, cat. 100-26), 1 ng/mL human FGF-2 (PeproTech, cat. 100-18B), 1 µM prostaglandin E2 (Tocris Bioscience, cat. 2296), […] hydrocortisone (Sigma-Aldrich, cat. H4001), and […] bovine insulin (Sigma-Aldrich, cat. I6634). The K86415-001-R-J1-PDC line was cultured in 6D media, which includes all 6C/Colon 1B media components minus the L-WRN conditioned media. The 485176-168-R4-J1-PDC was cultured in PANC media, which includes all 6C/Colon 1B media plus 100 ng/mL human FGF-10 (PeproTech, cat. 100-26), 500 nM SB-431542 (Selleckchem, cat. S1067), and 10 nM gastrin (Tocris Bioscience, cat. 3006). […]

Structures are written as SMILES. Bounds are passed on as bounds.

As usually defined, the IC50 is the concentration that gives 50% inhibition. The viability, T/C is the ratio of treated to control.
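Note: spheroids exposed to compounds for seven days before readout.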
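Throughout, for viability, T/C: luminescence viability expressed relative to DMSO vehicle wells set as 100%.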

Take `CC(=O)OC12COC1CC(O)C1(C)C(=O)C(O)C3=C(C)C(OC(=O)C(O)C(NC(=O)OC(C)(C)C)c4ccccc4)CC(O)(C(OC(=O)c4ccccc4)C21)C3(C)C` (stereo not drawn) + C=CC(=O)N1CCN(c2nc(OCC3CCCN3C)nc3c(F)c(-c4nc(N)cc(C)c4C(F)(F)F)c(Cl)cc23)C(C)C1: the IC50 by setting is: (curve of first compound, second compound 0.00316 µM) under 31.6 nM; (curve of first compound, second compound 0.01 µM) under 31.6 nM; (curve of first compound, second compound 0.0316 µM) under 31.6 nM; (curve of first compound, second compound 0.1 µM) under 31.6 nM; (curve of first compound, second compound 0.316 µM) under 31.6 nM; (curve of first compound, second compound 1 µM) under 31.6 nM. Moreover, the viability, T/C by setting is: (second compound 0.00316 µM, first compound 0.0316 µM) 13.2%; (second compound 0.00316 µM, first compound 0.1 µM) 9.9%; (second compound 0.00316 µM, first compound 0.316 µM) 13.1%; (second compound 0.00316 µM, first compound 1 µM) 11.3%; (second compound 0.00316 µM, first compound 3.16 µM) 15.8%; (second compound 0.00316 µM, first compound 10 µM) 18.9%. Also, the viability, T/C is, setting by setting: (second compound 0.01 µM, first compound 0.0316 µM) 17%; (second compound 0.01 µM, first compound 0.1 µM) 12.3%; (second compound 0.01 µM, first compound 0.316 µM) 11.4%; (second compound 0.01 µM, first compound 1 µM) 11.7%; (second compound 0.01 µM, first compound 3.16 µM) 13.7%; (second compound 0.01 µM, first compound 10 µM) 16.3%. For the same molecule, the viability, T/C (second compound 0.0316 µM, first compound 0.0316 µM) was 15.2%; the viability, T/C (second compound 0.0316 µM, first compound 0.1 µM) is 13.6%; the viability, T/C (second compound 0.0316 µM, first compound 0.316 µM) was 12%; the viability, T/C (second compound 0.0316 µM, first compound 1 µM) is 15.1%; the viability, T/C (second compound 0.0316 µM, first compound 3.16 µM) was 13.3%; the viability, T/C (second compound 0.0316 µM, first compound 10 µM) was 17.9%. The viability, T/C runs as follows: (second compound 0.1 µM, first compound 0.0316 µM) 13.3%; (second compound 0.1 µM, first compound 0.1 µM) 13.8%; (second compound 0.1 µM, first compound 0.316 µM) 10.5%; (second compound 0.1 µM, first compound 1 µM) 11.3%; (second compound 0.1 µM, first compound 3.16 µM) 16.7%; (second compound 0.1 µM, first compound 10 µM) 17.9%. The viability, T/C was 18.4% (second compound 0.316 µM, first compound 0.0316 µM); 13.3% (second compound 0.316 µM, first compound 0.1 µM); 11.8% (second compound 0.316 µM, first compound 0.316 µM); 9.75% (second compound 0.316 µM, first compound 1 µM); 15.5% (second compound 0.316 µM, first compound 3.16 µM); 19.4% (second compound 0.316 µM, first compound 10 µM). The viability, T/C by setting is: (second compound 1 µM, first compound 0.0316 µM) 12.6%; (second compound 1 µM, first compound 0.1 µM) 9.69%; (second compound 1 µM, first compound 0.316 µM) 9.77%; (second compound 1 µM, first compound 1 µM) 9.87%; (second compound 1 µM, first compound 3.16 µM) 15.3%; (second compound 1 µM, first compound 10 µM) 18.2%.

Consider `Nc1ccn(C2OC(CO)C(O)C2(F)F)c(=O)n1` (stereo not drawn), for which the viability, T/C runs as follows: (compound 0.00316 µM) 97.3% [middle of 4 runs]; (compound 0.0316 µM) 17.7% [middle of 4 runs]; (compound 0.1 µM) 9.63% [middle of 4 runs]; (compound 0.316 µM) 9.78% [middle of 4 runs]; (compound 1 µM) 12.4% [middle of 4 runs]. Further, for the setting “curve of compound”, the IC50 was 16.7 nM [middle of 4 runs].

The record behind these values is PubChem BioAssay AID2060906 (Molecular Pharmacology Branch, DTP, NCI, 2025).
